Legend:
α2A-AR = biological target: T1, α2A-AR (Homo sapiens, UniProt P08913); assay: α2A-AR antagonist assay (calcium flux, Fluo-4, FlexStation II); type: cell-based; details: antagonistic activity against agonist UK14304 in cells stably expressing α2A-AR/Ga16
T1 construct: expressed in transfected cells; stably expressing α2A-AR/Gα16
T1 sequence (P08913 1-465): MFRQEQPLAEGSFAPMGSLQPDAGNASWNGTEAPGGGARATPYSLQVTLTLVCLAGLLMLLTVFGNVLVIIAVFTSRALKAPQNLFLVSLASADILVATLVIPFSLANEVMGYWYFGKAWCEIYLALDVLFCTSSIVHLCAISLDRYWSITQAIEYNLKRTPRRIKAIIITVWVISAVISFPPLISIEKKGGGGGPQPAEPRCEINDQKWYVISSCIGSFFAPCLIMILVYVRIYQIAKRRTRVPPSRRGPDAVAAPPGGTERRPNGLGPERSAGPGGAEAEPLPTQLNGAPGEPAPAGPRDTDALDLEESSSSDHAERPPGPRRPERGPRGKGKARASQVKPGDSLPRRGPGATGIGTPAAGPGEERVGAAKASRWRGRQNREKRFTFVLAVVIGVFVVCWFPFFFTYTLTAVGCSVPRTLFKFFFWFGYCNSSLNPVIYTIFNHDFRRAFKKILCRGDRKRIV
Source text: By establishing a cell line co-transfected with the target receptor and Ga16, the receptor can be activated to cause the activation of Gα16 protein, which in turn activates phospholipase C (PLC) to produce IP3 and DAG. IP3 can bind to the IP3 receptors on the endoplasmic reticulum and mitochondria in the cell, thereby causing the release of intracellular calcium. Therefore, measuring the changes in intracellular calcium can be used as a method to detect the activation state of the target receptor. Fluo-4/AM is a calcium fluorescent probe indicator used to measure calcium ions. As a non-polar lipid-soluble compound, after entering the cell, the AM group dissociates under the action of cell lipases and releases Fluo-4; since Fluo-4 is a polar molecule that is not easy to pass through the lipid bilayer membrane, it can keep in the cell for a long time. Finally, the level of Ga protein activation can be reflected by measuring the excited fluorescence intensity.
Before the test, the test compound was dissolved in DMSO to prepare a stock solution, which was diluted with culture medium to the required concentration when used.

[1] = Tissue distribution test in mice; type: in vivo; details: gavage 10 mg/kg
Experimental: Mice were fasted for more than 12 h and had free access to water. Table 3 Experimental Scheme for tissue distribution of Compound C27 in mice
Mice were fasted for more than 12 h and had free access to water.
• (1) Tissue distribution test in mice: The animals in each group were anesthetized and killed 2 h after administration. The brain, pancreas, heart, liver, and kidney tissues were collected by dissection, washed with physiological saline, and stored in a -20 °C refrigerator for testing. At the same time, 0.3 mL of whole blood was collected and placed in an EDTA-K2 anticoagulant tube. The blood was separated by centrifugation at 11,000 rpm for 5 min and stored in a -20 °C refrigerator for testing.
The concentration of unchanged drug in plasma and tissues was determined.
(2) Tissue distribution test of compound C27 in mice: At corresponding time points (0.25, 2 and 8 h) after gavage administration, mice were bled to death through the abdominal aorta. Brain, heart, liver, lung, pancreas and kidney tissues were immediately collected by dissection, and part of the plasma was collected. The operation was carried out in an ice water bath.
Centrifugation conditions: 11000 rpm for 5 min to separate plasma (about 200 µL).

type 2 diabetic mice = assay: Blood sugar lowering effect in high-sugar and high-fat diet-induced type 2 diabetes mouse model; type: in vivo, C57BL\6J mice
Source text: A high-sugar and high-fat diet-induced type 2 diabetes mouse model was used in this experiment, and the following tests were mainly conducted: • 1) Effect of single intraperitoneal administration on basal blood glucose, glucose tolerance and insulin sensitivity in diabetic mice. • 2) Effect of single gavage administration on glucose tolerance and insulin sensitivity in diabetic mice. • 3) Effect of continuous chronic intraperitoneal administration on basal blood glucose in diabetic mice.
C57BL\6J mice were fed with a high-sugar and high-fat diet for 3 consecutive months. The test experiment was conducted after the average body weight of the mice stabilized at more than 50g and the average basal blood sugar value stabilized at more than 12mmol/L.
Blood glucose level was mainly measured by measuring tail vein blood using a blood glucose meter. For the test of basal blood glucose effect, the mice were on a normal diet. The basal blood glucose value before administration was first measured, and then a single intraperitoneal injection or a single gavage of the yohimbine derivative C19 (10 mg/kg mouse body weight) was given, and the venous blood glucose level was measured 15, 30, 60, 90, and 120 minutes after administration. The mouse glucose tolerance test was performed after the mouse has eaten for 16 hours overnight. 30 minutes after a single intraperitoneal injection or a single gavage of the yohimbine derivative C19 (10 mg/kg mouse body weight), glucose (1.5 g/kg) was injected intraperitoneally, and the venous blood glucose level was measured 15, 30, 60, 90, and 120 minutes later. Mouse insulin sensitivity was tested after the mouse has eaten for 6 hours. 30 minutes after a single intraperitoneal injection or single gavage of yohimbine derivative C19 (10 mg/kg mouse body weight), insulin (1 UI/kg) was injected intraperitoneally, and the venous blood glucose level was measured 15, 30, 60, 90, and 120 minutes later. For the effect of chronic administration on blood glucose levels, diabetic mice were intraperitoneally injected with yohimbine derivative C19 (10 mg/kg) every day for 12 consecutive days, and the basal blood glucose level of mice under free diet was measured every day before drug injection. The control group was injected with normal saline or gavage.

[2] = relative ratio of tissue distribution concentration to blood concentration

SMILES: N#Cc1ccc(Cc2noc([C@@H]3[C@H]4C[C@H]5c6[nH]c7ccccc7c6CCN5C[C@@H]4CC[C@@H]3O)n2)cc1 [Compound C19]
- IC50 (α2A-AR): 0.3 to 0.5 µM
- pancreatic distribution [1]: good pancreatic distribution
- brain tissue distribution compared with yohimbine [1, 2]: lower brain tissue distribution than yohimbine
- brain tissue distribution, times lower than that of yohimbine [1, 2]: about forty times lower
- basal blood glucose level (type 2 diabetic mice; chronic intraperitoneal injection, 10 mg/kg once a day, 12 consecutive days (Figure 8)): stably maintain the basal blood sugar level of diabetic mice at a state closer to the normal level
- glucose tolerance (type 2 diabetic mice; single gavage administration, 10 mg/kg (Figure 6)): improve glucose tolerance
- insulin sensitivity (type 2 diabetic mice; single gavage administration, 10 mg/kg (Figure 7)): increase insulin sensitivity
- basal blood glucose level (type 2 diabetic mice; single intraperitoneal injection, 10 mg/kg (Figure 3)): significantly reduce the high blood sugar level of diabetic mice
- glucose tolerance (type 2 diabetic mice; single intraperitoneal injection, 10 mg/kg (Figure 4)): improve glucose tolerance
- insulin sensitivity (type 2 diabetic mice; single intraperitoneal injection, 10 mg/kg (Figure 5)): increase insulin sensitivity
